Measured values: BigSolDB 2.1

Details: in water

O=[N+]([O-])c1ccc(/C=C/c2ccc([N+](=O)[O-])cc2S(=O)(=O)[O-])c(S(=O)(=O)[O-])c1.[Na+].[Na+]
Details	solubility (mole fraction)
284.85 K	0.0013
290.35 K	0.0017
293.05 K	0.00197
296.45 K	0.00228
301.45 K	0.00302
304.55 K	0.00353
307.75 K	0.00394
309.85 K	0.00434
312.05 K	0.00498
316.25 K	0.00595
319.25 K	0.00674
321.95 K	0.00756
